# Results as given in patent US20250000874A1, “BACTERIAL METABOLITES AND THEIR USE IN REDUCING INFLAMMATION” (LOYOLA UNIVERSITY OF CHICAGO, priority 2023, published 2025).
# How the values were obtained:
# BMDMs = assay: JE on TNF-α and IL-6 secretion by BMDMs upon LPS and TLR agonists; assay type: cell-based, mouse
# Description: (§1) FIG. 16. The Effect of JE on TNF-α Secretion by BMDMs in Response to Stimulation by Different Concentrations of LPS. BMDMs were isolated and cultured, as mentioned before. Macrophages were incubated overnight with JE at a concentration of 50 μM at 37° C., 5% CO2. The next day, they were stimulated with two-fold dilutions of LPS at a starting concentration of 5 ng/ml for 3 hours. Supernatants were collected, and TNF-α was measured using ELISA. Data are presented as mean±SEM (n=6). *p<0.05; **p<0.01; ***p<0.001. One of two experiments is shown.
# as §1, with “17.” for “16.”, “IL-6” for “TNF-α”, “cultured” for “cultured,”, “described above.” for “mentioned before.”
# FIG. 18. The Effect of JE on TNF-α Secretion by BMDMs in Response to Stimulation by TLR Agonists. BMDMs were isolated and cultured as described above. Macrophages were incubated overnight with JE at a concentration of 50 μM at 37° C., 5% CO2. The following day, they were stimulated with 1 μg/ml of FLG-ST, […] of ODN, 50 μg/ml of Poly: IC, 3 μg/ml of Imiquimod, 3 μg/ml and 1.5 μg/ml of PAM-3SCk, 1 μg/ml of FSL-1 for 3 hours. Supernatants were collected, and TNF-α was measured using ELISA. Data are presented as mean±SEM (n=6). *p<0.05; **p<0.01; ***p<0.001. One of three experiments is shown.
# Murine macrophages, both RAW 264.7 macrophages and bone marrow-derived macrophages (BMDMs), were seeded and then pretreated overnight with the metabolite JE. The following day, the macrophages were stimulated with one of TLR agonists, including LPS, FLA-ST, ODN, Pam3SCK4, Poly: IC LMW, FSL, and Imiquimod for 3 hours, then the production of TNF-α, and IL-6 in the culture supernatants was measured by ELISA.
# Therefore, I stimulated them with two-fold dilution of the concentration I used to stimulate RAW 264.7. […] On the other hand, JE could reduce IL-6 secretion by BMDMs at 5 ng/ml of LPS as depicted in FIG. 17.
# Similar to treatment of RAW 264.7 macrophages with TLR agonists, I pretreated BMDMs with JE then stimulated them with FLG, ODN, PIC, Imiquimod, PAM-3SCK, and FSL-1. […] After 3 hours, Supernatants were collected, TNF-α and IL-6 were quantified by ELISA.
# NLRP3 inflammasome = assay: JE on IL-1β production by THP-1 macrophages upon NLRP3 activation; assay type: cell-based, human
# Description: FIG. 22. The Effect of JE on IL-1β Production by THP-1 Macrophages. THP-1 macrophages were pretreated with JE overnight at 37° C., 5% CO2. The next day, they were primed with LPS at 500 ng/ml for 4 hours then activated with 6.5 μM of nigericin for 30 minutes at 37 C, 5% CO2. Supernatants were collected and IL-1β production with ELISA. Data are presented as mean±SEM (n=6). *p<0.05. One of two experiments is shown.
# FIG. 23. The Effect of JE on IL-1β Production by THP-1 Macrophages: JE was used as a pretreatment when THP-1 macrophages were pretreated with JE overnight at 37° C., 5% CO2. The next day, they were primed with LPS at 500 ng/ml for 4 hours, then activated with 5 mM of ATP for 30 minutes at 37° C., 5% CO2. In the case when JE was used as a treatment, cells were primed with 10 ng/ml of LPS for 4 hours, then JE was added overnight at 37° C., 5% CO2. The following day, macrophages were activated with 5 mM of ATP for an hour. Supernatants were collected and IL-1β production with ELISA. Data are presented as mean±SEM (n=6). **p<0.01. One of two experiments is shown.
# We similarly tested THP-1 cells as described above. […] I collected the supernatant and measured IL-1β by ELISA. […]
smiles,measurement,setting,value
"CC(=O)O[C@@H]1CC[C@H]2[C@H]3CC[C@H]4CC(F)(F)CC[C@]4(C)[C@H]3CC[C@]12C [JE, 3,3-Difluoro-5-alpha-androstan-17-beta-yl acetate]",TNF-α secretion,"BMDMs; JE 50 μM overnight, LPS 0.6 ng/ml 3 hours",Significant inhibition
same,TNF-α secretion,"BMDMs; JE 50 μM overnight, LPS 1.25 ng/ml 3 hours",Significant inhibition
same,IL-6 secretion,"BMDMs; JE 50 μM overnight, LPS 5 ng/ml 3 hours",could reduce
same,TNF-α secretion upon stimulation with TLR agonists,"BMDMs; JE 50 μM overnight, FLG, ODN, PIC, Imiquimod, PAM-3SCK, FSL-1, 3 hours",decreased
same,IL-6 secretion upon stimulation with TLR agonists,"BMDMs; JE 50 μM overnight, TLR agonists 3 hours",decreased
same,IL-6 production,"BMDMs; JE, LPS 10 ng/ml",failed to decrease
same,TNF-α production,"BMDMs; JE, LPS 10 ng/ml",failed to decrease
same,TNF-α production,"BMDMs; ODN and PAM-3SCK, previous experiment before two-fold dilutions",did not significantly reduce
same,IL-1β production upon NLRP3 activation,NLRP3 inflammasome; JE added before priming with LPS (pretreatment overnight),could decrease
same,IL-1β production upon NLRP3 activation,NLRP3 inflammasome; JE after priming with LPS and before adding ATP,still detected robust production
